Measurements reported in publication PMC3388080 (PLoS ONE, 2012).

Experiments:
Format in all cases: in vivo, rat
male Sprague-Dawley rats [1] = test: EEG/EMG/Tcore/LMA telemetry sleep study 1 (SB-334867 vs ZOL); conditions: 7.5 mg/kg ip
Method: (§1) All rodent electroencephalograph (EEG) studies were performed at SRI International. Three groups of eight male Sprague-Dawley rats (300±25 g; Charles River, Wilmington, MA) were implanted with chronic recording devices (F40-EET, Data Sciences Inc., St Paul, MN) for continuous recordings of EEG, electromyograph (EMG), core body temperature (Tcore), and LMA via telemetry as previously described. Data recording and scoring were performed as previously reported (see also Supplemental Material and Methods). The EEG and EMG data were scored in 10 sec epochs for waking (W), rapid eye movement sleep (REM), and non-REM sleep (NR). Tcore and LMA (counts per minute) were analyzed as hourly means. Data from the EEG studies are reported in hourly means such that the hourly time ZT1 refers to the hour between time points ZT0 and ZT1.
(§2) For each of the three separate studies, a repeated measures counter-balanced design was employed in which each rat received five separate dosings. […] All dosings were administered ip in a volume of 2 ml/kg. A minimum of 3 d elapsed between doses. Dosing occurred during the middle of the rats’ normal active period at the start of ZT19 and was typically completed within 10 min. Animals were continuously recorded for 6 h prior to dosing and for 18 h following dosing.

male Sprague-Dawley rats [2] = test: EEG/EMG/Tcore/LMA telemetry sleep study 2 (EMPA vs ZOL); conditions: ZOL 10 mg/kg ip
Method: as §1, §2

male Sprague-Dawley rats [3] = test: EEG/EMG/Tcore/LMA telemetry sleep study 3 (almorexant vs ZOL); conditions: ZOL 10 mg/kg ip
Method: as §1, §2

male Sprague-Dawley rats [4] = test: Rodent EEG studies, all three studies together
Method: as §1, §2

Cc1ccc(-c2nc3ccc(C)cn3c2CC(=O)N(C)C)cc1 [ZOL, N,N,6-Trimehtyl-2-(methylphenyl)-imidazol[1,2-a]pyridine-3-acetamide]
NR bout duration (male Sprague-Dawley rats [1]; 6 h Average): 1.63 ± 0.07
REM bout duration (male Sprague-Dawley rats [1]; 6 h Average): 0.99 ± 0.09
W bout duration (male Sprague-Dawley rats [1]; 6 h Average): 4.50 ± 0.41
Number of NR bouts (male Sprague-Dawley rats [1]; 6 h Total): 62.88 ± 3.98
Number of REM bouts (male Sprague-Dawley rats [1]; 6 h Total): 13.13 ± 1.32
Number of W bouts (male Sprague-Dawley rats [1]; 6 h Total): 56.0 ± 4.43
NR bout duration (male Sprague-Dawley rats [1]; ZT19): 3.33 ± 0.78
Number of NR bouts (male Sprague-Dawley rats [1]; ZT19): 7.50 ± 1.43
Number of REM bouts (male Sprague-Dawley rats [1]; ZT19): 1.38 ± 0.46
Number of W bouts (male Sprague-Dawley rats [1]; ZT19): 6.75 ± 1.31
REM bout duration (male Sprague-Dawley rats [1]; ZT19): 0.77 ± 0.20
NR bout duration (male Sprague-Dawley rats [1]; ZT20): 2.95 ± 0.43
Number of NR bouts (male Sprague-Dawley rats [1]; ZT20): 7.75 ± 1.29
Number of REM bouts (male Sprague-Dawley rats [1]; ZT20): 0.88 ± 0.48
Number of W bouts (male Sprague-Dawley rats [1]; ZT20): 6.00 ± 0.82
REM bout duration (male Sprague-Dawley rats [1]; ZT20): 0.76 ± 0.19
NR bout duration (male Sprague-Dawley rats [1]; ZT21): 1.87 ± 0.20
Number of NR bouts (male Sprague-Dawley rats [1]; ZT21): 17.25 ± 2.00
Number of REM bouts (male Sprague-Dawley rats [1]; ZT21): 4.50 ± 0.78
Number of W bouts (male Sprague-Dawley rats [1]; ZT21): 12.00 ± 1.95
REM bout duration (male Sprague-Dawley rats [1]; ZT21): 1.28 ± 0.11
W bout duration (male Sprague-Dawley rats [1]; ZT21): 2.44 ± 0.75
NR bout duration (male Sprague-Dawley rats [1]; ZT22): 1.01 ± 0.10
Number of NR bouts (male Sprague-Dawley rats [1]; ZT22): 14.88 ± 1.88
Number of REM bouts (male Sprague-Dawley rats [1]; ZT22): 1.25 ± 0.75
Number of W bouts (male Sprague-Dawley rats [1]; ZT22): 14.75 ± 2.49
W bout duration (male Sprague-Dawley rats [1]; ZT22): 3.30 ± 0.66
NR bout duration (male Sprague-Dawley rats [1]; ZT23): 0.82 ± 0.10
Number of NR bouts (male Sprague-Dawley rats [1]; ZT23): 7.25 ± 1.06
Number of REM bouts (male Sprague-Dawley rats [1]; ZT23): 1.00 ± 0.38
Number of W bouts (male Sprague-Dawley rats [1]; ZT23): 7.75 ± 1.19
REM bout duration (male Sprague-Dawley rats [1]; ZT23): 0.72 ± 0.26
NR bout duration (male Sprague-Dawley rats [1]; ZT24): 0.84 ± 0.09
Number of NR bouts (male Sprague-Dawley rats [1]; ZT24): 8.25 ± 1.75
Number of W bouts (male Sprague-Dawley rats [1]; ZT24): 7.88 ± 1.63
REM bout duration (male Sprague-Dawley rats [1]; ZT24): 0.86 ± 0.24
W bout duration (male Sprague-Dawley rats [1]; ZT24): 12.51 ± 0.82
NR bout duration (male Sprague-Dawley rats [2]; 6 h Average): 1.80 ± 0.13
REM bout duration (male Sprague-Dawley rats [2]; 6 h Average): 0.88 ± 0.07
W bout duration (male Sprague-Dawley rats [2]; 6 h Average): 3.94 ± 0.29
Number of NR bouts (male Sprague-Dawley rats [2]; 6 h Total): 73.70 ± 4.34
Number of REM bouts (male Sprague-Dawley rats [2]; 6 h Total): 12.10 ± 1.30
Number of W bouts (male Sprague-Dawley rats [2]; 6 h Total): 55.80 ± 3.84
NR bout duration (male Sprague-Dawley rats [2]; ZT19): 3.89± 0.68
Number of NR bouts (male Sprague-Dawley rats [2]; ZT19): 8.90 ± 1.06
Number of REM bouts (male Sprague-Dawley rats [2]; ZT19): 0.60± 0.31
Number of W bouts (male Sprague-Dawley rats [2]; ZT19): 8.10± 0.97
REM bout duration (male Sprague-Dawley rats [2]; ZT19): 0.65± 0.16
W bout duration (male Sprague-Dawley rats [2]; ZT19): 3.64± 0.51
NR bout duration (male Sprague-Dawley rats [2]; ZT20): 3.13± 0.44
Number of NR bouts (male Sprague-Dawley rats [2]; ZT20): 11.60± 1.38
Number of REM bouts (male Sprague-Dawley rats [2]; ZT20): 1.10± 0.48
Number of W bouts (male Sprague-Dawley rats [2]; ZT20): 8.60± 1.59
REM bout duration (male Sprague-Dawley rats [2]; ZT20): 0.96± 0.27
W bout duration (male Sprague-Dawley rats [2]; ZT20): 3.23± .037
NR bout duration (male Sprague-Dawley rats [2]; ZT21): 1.81± 0.27
Number of NR bouts (male Sprague-Dawley rats [2]; ZT21): 16.40± 2.10
Number of REM bouts (male Sprague-Dawley rats [2]; ZT21): 3.30± 0.75
Number of W bouts (male Sprague-Dawley rats [2]; ZT21): 11.00± 1.74
REM bout duration (male Sprague-Dawley rats [2]; ZT21): 0.66± 0.09
W bout duration (male Sprague-Dawley rats [2]; ZT21): 3.10± .059
NR bout duration (male Sprague-Dawley rats [2]; ZT22): 1.34± 0.17
Number of NR bouts (male Sprague-Dawley rats [2]; ZT22): 16.10± 1.11
Number of REM bouts (male Sprague-Dawley rats [2]; ZT22): 4.80± 0.55
Number of W bouts (male Sprague-Dawley rats [2]; ZT22): 12.10± 0.85
REM bout duration (male Sprague-Dawley rats [2]; ZT22): 0.97± 0.10
W bout duration (male Sprague-Dawley rats [2]; ZT22): 2.59± 0.31
NR bout duration (male Sprague-Dawley rats [2]; ZT23): 0.98± 0.11
Number of NR bouts (male Sprague-Dawley rats [2]; ZT23): 13.00± 1.64
Number of REM bouts (male Sprague-Dawley rats [2]; ZT23): 1.90± 0.35
Number of W bouts (male Sprague-Dawley rats [2]; ZT23): 8.90± 1.15
W bout duration (male Sprague-Dawley rats [2]; ZT23): 5.59 ±0.93
NR bout duration (male Sprague-Dawley rats [2]; ZT24): 0.92± 0.20
Number of NR bouts (male Sprague-Dawley rats [2]; ZT24): 7.50± 1.58
Number of REM bouts (male Sprague-Dawley rats [2]; ZT24): 0.40± 0.22
Number of W bouts (male Sprague-Dawley rats [2]; ZT24): 6.20± 1.31
REM bout duration (male Sprague-Dawley rats [2]; ZT24): 0.58± 0.14
W bout duration (male Sprague-Dawley rats [2]; ZT24): 12.90± 3.56
NR bout duration (male Sprague-Dawley rats [3]; 6 h Average): 1.99 ± 0.16
REM bout duration (male Sprague-Dawley rats [3]; 6 h Average): 0.97 ± 0.12
W bout duration (male Sprague-Dawley rats [3]; 6 h Average): 2.88 ± 0.16
Number of NR bouts (male Sprague-Dawley rats [3]; 6 h Total): 77.63 ± 3.56
Number of REM bouts (male Sprague-Dawley rats [3]; 6 h Total): 7.38 ± 1.68
Number of W bouts (male Sprague-Dawley rats [3]; 6 h Total): 68.00 ± 4.23
NR bout duration (male Sprague-Dawley rats [3]; ZT19): 3.53 ± 0.71
Number of REM bouts (male Sprague-Dawley rats [3]; ZT19): 0.50 ± 0.27
Number of W bouts (male Sprague-Dawley rats [3]; ZT19): 8.75 ± 1.56
REM bout duration (male Sprague-Dawley rats [3]; ZT19): 0.33 ± 0.10
W bout duration (male Sprague-Dawley rats [3]; ZT19): 4.15 ± 0.82
NR bout duration (male Sprague-Dawley rats [3]; ZT20): 2.90 ± 0.19
Number of NR bouts (male Sprague-Dawley rats [3]; ZT20): 11.63 ± 1.36
Number of REM bouts (male Sprague-Dawley rats [3]; ZT20): 0.50 ± 0.38
Number of W bouts (male Sprague-Dawley rats [3]; ZT20): 10.00 ± 0.71
REM bout duration (male Sprague-Dawley rats [3]; ZT20): 2.25 ± 0.25
W bout duration (male Sprague-Dawley rats [3]; ZT20): 2.31 ± 0.33
NR bout duration (male Sprague-Dawley rats [3]; ZT21): 2.84 ± 0.34
Number of NR bouts (male Sprague-Dawley rats [3]; ZT21): 11.88 ± 1.60
Number of W bouts (male Sprague-Dawley rats [3]; ZT21): 10.25 ± 1.56
W bout duration (male Sprague-Dawley rats [3]; ZT21): 2.69 ± 0.42
NR bout duration (male Sprague-Dawley rats [3]; ZT22): 2.27 ± 0.44
Number of NR bouts (male Sprague-Dawley rats [3]; ZT22): 13.50 ± 1.88
Number of REM bouts (male Sprague-Dawley rats [3]; ZT22): 2.50 ± 0.82
Number of W bouts (male Sprague-Dawley rats [3]; ZT22): 10.50 ± 1.21
W bout duration (male Sprague-Dawley rats [3]; ZT22): 3.13 ± 0.59
NR bout duration (male Sprague-Dawley rats [3]; ZT23): 1.29 ± 0.20
Number of NR bouts (male Sprague-Dawley rats [3]; ZT23): 17.25 ± 3.27
Number of REM bouts (male Sprague-Dawley rats [3]; ZT23): 1.75 ± 0.41
Number of W bouts (male Sprague-Dawley rats [3]; ZT23): 15.13 ± 3.17
W bout duration (male Sprague-Dawley rats [3]; ZT23): 3.85 ± 1.44
NR bout duration (male Sprague-Dawley rats [3]; ZT24): 1.03 ± 0.12
Number of NR bouts (male Sprague-Dawley rats [3]; ZT24): 13.13 ± 2.37
Number of REM bouts (male Sprague-Dawley rats [3]; ZT24): 1.00 ± 0.42
Number of W bouts (male Sprague-Dawley rats [3]; ZT24): 12.63 ± 2.40
REM bout duration (male Sprague-Dawley rats [3]; ZT24): 0.66 ± 0.29
W bout duration (male Sprague-Dawley rats [3]; ZT24): 4.15 ± 0.83
NR latency (in words) (male Sprague-Dawley rats [4]; ZOL 7.5 or 10 mg/kg ip, all three experiments): decrease in NR latency
cumulative NR (in words) (male Sprague-Dawley rats [4]; all three experiments): increased cumulative NR
cumulative REM (in words) (male Sprague-Dawley rats [4]; all three experiments): decreased cumulative REM
Tcore (in words) (male Sprague-Dawley rats [4]; all three studies, followed by rebound increase in the light period): largest declines in Tcore
EEG delta power during NR (in words) (male Sprague-Dawley rats [4]; compared to vehicle control): significant effects on EEG delta power during NR
